Measurements published in patent publication US6423519B1, “Compositions and methods for inhibiting fungal growth” (GPC Biotech Inc., priority 1998, dated 2002).
Like-named read-outs stand apart in the source and are kept apart here.

Legend:
Hu FT = Hu FT (Homo sapiens, UniProt P49356); experiment: Human FT inhibition (Hu FT); assay type: biochemical; settings: Table 3 Piperidine Analogs
C. albicans GGPTase = molecular target: T1, C. albicans GGPTase (Candida albicans, UniProt Q8J224+Q9Y764); experiment: biochemical; settings: read-out: IC50 (nM) Ca GG
T1 sequence (Q9Y764 1-398): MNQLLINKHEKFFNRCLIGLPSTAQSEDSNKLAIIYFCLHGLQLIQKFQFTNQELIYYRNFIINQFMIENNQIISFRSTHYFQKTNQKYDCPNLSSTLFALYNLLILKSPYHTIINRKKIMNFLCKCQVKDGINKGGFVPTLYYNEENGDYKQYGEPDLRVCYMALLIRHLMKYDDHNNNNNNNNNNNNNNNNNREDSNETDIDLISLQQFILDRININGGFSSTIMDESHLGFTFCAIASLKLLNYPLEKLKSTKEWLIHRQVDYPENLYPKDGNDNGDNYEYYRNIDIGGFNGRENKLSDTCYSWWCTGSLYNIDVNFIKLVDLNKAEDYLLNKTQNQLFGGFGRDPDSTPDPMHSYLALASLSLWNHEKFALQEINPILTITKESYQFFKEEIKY
T1 sequence (Q8J224 1-306): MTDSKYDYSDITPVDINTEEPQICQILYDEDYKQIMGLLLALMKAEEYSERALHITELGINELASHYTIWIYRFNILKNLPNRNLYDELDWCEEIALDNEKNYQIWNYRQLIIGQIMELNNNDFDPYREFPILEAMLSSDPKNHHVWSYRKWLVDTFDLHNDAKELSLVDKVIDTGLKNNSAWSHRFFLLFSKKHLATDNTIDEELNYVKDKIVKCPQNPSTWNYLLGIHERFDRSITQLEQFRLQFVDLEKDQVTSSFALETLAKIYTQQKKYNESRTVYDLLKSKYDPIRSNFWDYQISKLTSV
Method: Plate test compounds (10 μL per well) at predetermined concentration in 50% DMSO. For background control (blank) and reaction control (negative), add 10 μL of 200 μM GGPP and 10 μL 50% DMSO, respectively. Prepare assay buffer: 50 mM Tris, pH7.5, 20 mM KCL, 5 mM MgCl2, 5 μM ZnCl2, 0.5 mM Zw(3-14), 2 mM DTT and 0.1 mg/mL BSA.
Add 20 μL of C. albicans GGPTase and ^3H-GGPP in assay buffer to test compound. Preincubate enzyme and ^3H-GGPP with test compound for 15 minutes at room temperature. Add 20 μL C. albicans Rho in assay buffer. Incubate for 30 minutes at room temperature. Final assay conditions are 2 nM C. albicans GGPTase, 250 nM ^3H-GGPP and 250 nM C. albicans Rho.
Add 100 μL 15 mM GGPP, 50 mM Tris, pH7.0 and 2% BSA to quench reaction. Transfer reaction to Nickel chelate FlashPlate. Allow his-tagged C. albcians Rho to capture onto plate. Rinse plate 1× with 200 μL 20 mM Tris, pH7.0. Read in TOPCOUNT.

human GGTase = human GGTase (Homo sapiens, UniProt P53609); experiment: Human GGTase inhibition (Hu GG); assay type: biochemical; settings: read-out: IC50 (nM) Hu GG
Text: As described below, a variety of different compounds were synthesized and tested for inhibitory activity against human and Candida GGTase. Exemplary synthesis schemes for generating prenyltransferase inhibitors useful in the methods and compositions of the present invention are shown in FIGS. 1-56. Tables 1-5 provide Structure-Activity relationship (SAR) data for several different classes of prenyltransferase inhibitors.

Asp GG = Asp GG inhibition; assay type: biochemical
Cryp GG = Cryp GG inhibition; assay type: biochemical
C. albicans = experiment: In vitro susceptibility testing of compounds in C. albicans (MIC); assay type: cell-based; settings: for MIC: Candida albicans, read-out: MIC (μg/mL) C alb; for MIC (μg/mL) C alb: Table 1
Method: 1: Innoculate strain C. albicans strain such as SC5314 into 20 mL of the appropriate medium and incubate at 35° C. with shaking (220 rpm) overnight
2: Count the C. albicans cells in a 1:10 dilution of the overnight culture using a haemocytometer.
3: Work out the dilution factor required to bring the cell number to 1×10^3 cells/100 μL (equivalent to 1×10^4 cells/mL) then add the required volume of the overnight culture to 25 mL media in a falcon tube.
4: Vortex the diluted cells and immediately pipette 100 μL of the cell suspension to each of the required rows of a 96 well plate using the multipipettor.
5: Prepare each of the 100×stock solutions for the compounds to be tested in DMSO in the required concentration range in Eppendorf tubes.
6: The dilution series for each of the compounds may now be prepared in sequence:
For each compound—start with highest dilution. Add 10 μL compound in DMSO to the 490 μL of appropriate media. Immediately vortex and add 100 μL to the appropraite row of cells on the 96-well plate. Repeat this process for the next and subsequent concentrations of this compound before starting on the dilution series for additional compounds.
7: When complete cover the 96-well plate with an acetate sheet and incubate at 35° C. Inspect visually and record results for both plates at the 24 hr and 48 hr. The MIC corresponds to the concentration of compound where no visible growth is observed.

H460 Cell Line = experiment: Cytotoxicity of GGPTase inhibitors in human cells, H460 (Sulforhodamine B); assay type: cell-based; settings: NCI-H460, 72 h, read-out: IC50 (nM) H460
Method: (§1) (A) Plate out cells at predetermined concentration in a volume of 150 μl.
(§2) (B) Allow cells to adhere to plate for twenty four hours
(§3) (C) Add compounds to cells at predetermined concentration (62.5 μg/mL down four-fold, 8 dilutions) n=2
(§4) (D) Cells are exposed to drug for 7 days for the IMR90 Cell Line, and a period of 3 days for the H460 Cell Line.
(E) 1. H460 Cells are fixed in TCA, rinsed, stained with Sulforhodamine B stain, and the stain is solubilized for a final OD read.

IMR90 Cell Line = experiment: Cytotoxicity of GGPTase inhibitors in human cells, IMR90 (MTT); assay type: cell-based; settings: IMR-90, 168 h, read-out: IC50 (nM) IMR90
Method: as §1, §2, §3, §4
2. IMR90 Cells have 3-{4,5-Dimethylthiazol-2-yl}-2,5-diphenyltetrazolium bromide (MTT) added to them for three hours prior to final read out. After the three hours, media and MTT are removed and MTT crystals are solubilized in 100% DMSO for final OD read.

SMILES | IC50 (Hu FT) | IC50 (C. albicans GGPTase; Table 3 Piperidine Analogs) | IC50 (human GGTase; Table 3 Piperidine Analogs) | also measured
N[C@@H](CS)C(=O)N1CCC(C(=O)NCc2cccc(-c3ccccc3)c2)(c2ccccc2)CC1 [Compound 53e] | > 1000 nM | < 100 nM | > 1000 nM | –
N[C@@H](CS)C(=O)N1CCC(C(=O)NCCCN2CCOCC2)(c2ccccc2)CC1 [Compound 53f] | > 1000 nM | < 500 nM | > 1000 nM | IC50 (Asp GG; Table 3 Piperidine Analogs): > 1000 nM; IC50 (Cryp GG; Table 3 Piperidine Analogs): > 1000 nM
N[C@@H](CS)C(=O)N1CCC(C(=O)NCCN2CCCC2)(c2ccccc2)CC1 [Compound 53g] | > 1000 nM | < 100 nM | > 1000 nM | –
N[C@@H](CS)C(=O)N1CCC(C(=O)NCc2nc3ccccc3[nH]2)(c2ccccc2)CC1 [Compound 53h] | > 1000 nM | < 100 nM | > 1000 nM | –
CC(C)C[C@H](NC(=O)C1(c2ccccc2)CCN(C(=O)[C@@H](N)CS)CC1)C(N)=O [Compound 53i] | > 1000 nM | < 100 nM | < 100 nM | –
N[C@@H](CS)C(=O)N1CCC(C(=O)NCCCn2ccnc2)(c2ccccc2)CC1 [Compound 53j] | > 1000 nM | < 100 nM | > 1000 nM | –
N[C@@H](CS)C(=O)N1CCC(C(=O)NCc2ccncc2)(c2ccccc2)CC1 [Compound 53k] | > 1000 nM | < 10 nM | > 1000 nM | IC50 (Asp GG; Table 3 Piperidine Analogs): > 1000 nM; IC50 (Cryp GG; Table 3 Piperidine Analogs): > 1000 nM
N#CC1CCC(CNC(=O)C2(c3ccccc3)CCN(C(=O)[C@@H](N)CS)CC2)CC1 (stereo partly shown) [Compound 53n] | > 1000 nM | < 100 nM | > 1000 nM | –
N[C@@H](CS)C(=O)N1CCC(C(=O)NCC(=O)Nc2ccc3ccccc3c2)(c2ccccc2)CC1 [Compound 53o] | – | < 1000 nM | > 1000 nM | IC50 (Asp GG; Table 3 Piperidine Analogs): > 1000 nM; IC50 (Cryp GG; Table 3 Piperidine Analogs): > 1000 nM
N[C@@H](CS)C(=O)N1CCC(C(=O)NCc2cccc(OC(F)(F)F)c2)(c2ccccc2)CC1 [Compound 53p] | > 1000 nM | < 100 nM | < 1000 nM | –
N[C@@H](CS)C(=O)N1CCC(C(=O)NCc2ccc3c(c2)OCO3)(c2ccccc2)CC1 [Compound 53q] | > 1000 nM | < 100 nM | > 1000 nM | –
N[C@@H](CS)C(=O)N1CCC(C(=O)NCc2ccc(F)cc2F)(c2ccccc2)CC1 [Compound 53r] | > 1000 nM | < 100 nM | > 1000 nM | –
COc1ccccc1CNC(=O)C1(c2ccccc2)CCN(C(=O)[C@@H](N)CS)CC1 [Compound 53u] | > 1000 nM | < 100 nM | > 500 nM | –
N[C@@H](CS)C(=O)N1CCC(C(=O)NCc2cccc3ccccc23)(c2ccccc2)CC1 [Compound 53w] | > 1000 nM | < 100 nM | > 500 nM | –
N[C@@H](CS)C(=O)N1CCC(C(=O)NC2c3ccccc3-c3ccccc32)(c2ccccc2)CC1 [Compound 53z] | > 1000 nM | < 100 nM | > 1000 nM | IC50 (Asp GG; Table 3 Piperidine Analogs): > 1000 nM; IC50 (Cryp GG; Table 3 Piperidine Analogs): > 1000 nM
NC[C@H](NC(=O)[C@@H](N)CS)C(=O)NCc1cccc2ccccc12 [Compound 89a] | – | – | – | MIC (C. albicans): > 200 µg/mL; MIC (μg/mL) C alb (C. albicans): >200 µg/mL; IC50 (Cryp GG; Table 1): > 1000 nM; IC50 (Cryp GG; Table 1 Peptide Analogs): > 1000 nM; IC50 (C. albicans GGPTase; Table 1): < 1000 nM; IC50 (C. albicans GGPTase; Table 1 Peptide Analogs): < 1000 nM; IC50 (human GGTase; Table 1): > 1000 nM; IC50 (human GGTase; Table 1 Peptide Analogs): > 1000 nM
NC[C@H](NC(=O)[C@@H](N)CS)C(=O)NCc1cccc(-c2ccccc2)c1 [Compound 89b] | – | – | – | MIC (C. albicans): > 200 µg/mL; MIC (μg/mL) C alb (C. albicans): >200 µg/mL; IC50 (C. albicans GGPTase; Table 1): < 500 nM; IC50 (C. albicans GGPTase; Table 1 Peptide Analogs): < 500 nM; IC50 (human GGTase; Table 1): > 1000 nM; IC50 (human GGTase; Table 1 Peptide Analogs): > 1000 nM
NC[C@H](NC(=O)[C@@H](N)CS)C(=O)N1CCC(C(=O)NCc2ccncc2)(c2ccccc2)CC1 [Compound 89c] | – | – | – | IC50 (Asp GG; Table 1): > 1000 nM; IC50 (Asp GG; Table 1 Peptide Analogs): > 1000 nM; IC50 (Cryp GG; Table 1): > 1000 nM; IC50 (Cryp GG; Table 1 Peptide Analogs): > 1000 nM; IC50 (C. albicans GGPTase; Table 1): < 1000 nM; IC50 (C. albicans GGPTase; Table 1 Peptide Analogs): < 1000 nM; IC50 (human GGTase; Table 1): > 1000 nM; IC50 (human GGTase; Table 1 Peptide Analogs): > 1000 nM
C[C@H](N)C(=O)N[C@@H](CS)C(=O)N1CCC(C(=O)NCc2ccncc2)(c2ccccc2)CC1 [Compound 96a] | – | > 1000 nM | > 1000 nM | IC50 (H460 Cell Line): > 1000 nM; IC50 (IMR90 Cell Line): > 1000 nM
C[C@H](N)C(=O)N[C@@H](C)C(=O)N[C@@H](CS)C(=O)N1CCC(C(=O)NCc2ccncc2)(c2ccccc2)CC1 [Compound 96b] | – | < 1000 nM | > 1000 nM | IC50 (H460 Cell Line): > 1000 nM; IC50 (IMR90 Cell Line): > 1000 nM
